# Source: patent US20040122045A1, “Timing curation of administration of adenosine A1/A2 agonist for cardioprotection” (Aventis Pharmaceuticals Inc., priority 2001, published 2004)
# pKi: −log10 of the molar value. Like-named read-outs stand apart in the source and are kept apart here.
# Tests used:
# in situ rabbit hearts = assay: Infarct size after 30 min regional ischemia/3 h reperfusion, in situ rabbit hearts; format: in vivo, New Zealand White rabbits; conditions: for Protection against infarction: Adenosine 150, 300 or 400 μg/kg/min; for Infarct size (% of risk zone): starting 10 minutes before reperfusion; for Infarct size, percentage of the risk zone: AMP 579 30 μg/kg iv bolus + 3 μg/kg/min
# Experimental: Body temperature was maintained at 38-39° C. […] Ischemia was confirmed by appearance of cyanosis.
# After 3 h of reperfusion, the rabbit was given an overdose of pentobarbital and the heart was quickly removed from the chest, mounted on a Langendorff apparatus, and perfused with saline to wash out blood. Then the coronary artery was reoccluded, and 5 ml of 0.1% zinc/cadmium sulfide particles (1-10 μm diameter, Duke Scientific Corp, Palo Alto, Calif.) were infused into the perfusate to demarcate the risk zone as the area of tissue without fluorescence. The heart was weighed, frozen, and cut into 2.5-mm-thick slices. The slices were incubated in 1% triphenyltetrazolium chloride (TTC) in sodium phosphate buffer at 37° C. for 20 min. The slices were immersed in 10% formalin to enhance the contrast between stained (viable) and unstained (necrotic) tissue and then squeezed between glass plates spaced exactly 2 mm apart. The myocardium at risk was identified by illuminating the slices with ultraviolet light. The infarcted and risk zone areas were traced on a clear acetate sheet and quantified with planimetry by an investigator blinded to the treatment. The areas were converted into volumes by multiplying the areas by slice thickness. Infarct size is expressed as a percentage of the risk zone.
# The control group received no drug treatment.
# chick cardiomyocytes = conditions: cited from earlier work
# rabbit heart = conditions: cited from earlier work
# [1] = Hemodynamics (heart rate, mean arterial pressure) during ischemia/reperfusion
# A1 receptor subtype = molecular target: T1, A1 receptor subtype (Homo sapiens, UniProt P30542); conditions: cited from earlier work
# T1 sequence (P30542 1-326): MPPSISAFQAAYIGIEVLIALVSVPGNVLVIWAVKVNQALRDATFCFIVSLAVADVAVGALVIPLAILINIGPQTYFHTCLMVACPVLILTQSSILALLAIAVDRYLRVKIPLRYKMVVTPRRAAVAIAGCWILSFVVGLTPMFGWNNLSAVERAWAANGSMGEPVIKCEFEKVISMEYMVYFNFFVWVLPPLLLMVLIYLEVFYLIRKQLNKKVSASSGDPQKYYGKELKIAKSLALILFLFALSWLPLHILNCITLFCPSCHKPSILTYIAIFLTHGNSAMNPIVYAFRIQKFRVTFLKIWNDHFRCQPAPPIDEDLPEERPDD
# rabbit hearts = conditions: cited from earlier work
# A2a receptor subtype = A2a receptor subtype (Homo sapiens, UniProt P29274); conditions: cited from earlier work
# [2] = Adenosine 150 μg/kg/min iv, 70 min starting 10 min before reperfusion
# [3] = Adenosine 300 μg/kg/min iv, 70 min starting 10 min before reperfusion
# [4] = Adenosine 400 μg/kg/min iv, 70 min starting 10 min before reperfusion
# [5] = AMP (30 min): 30 μg/kg iv bolus + 3 μg/kg/min, started 10 min before reperfusion, 30 min, Baseline
# [6] = AMP (30 min): started 10 min before reperfusion, 30 min, Ischemia (end of 30 min)
# [7] = AMP (30 min): started 10 min before reperfusion, 30 min, Rep 30′
# [8] = AMP (30 min): started 10 min before reperfusion, 30 min, Rep 90′
# [9] = AMP (30 min): started 10 min before reperfusion, 30 min, Rep 180′
# [10] = AMP (40 min): 30 μg/kg iv bolus + 3 μg/kg/min, started 10 min before reperfusion, 40 min, Baseline
# [11] = AMP (40 min): started 10 min before reperfusion, 40 min, Ischemia (end of 30 min)
# [12] = AMP (40 min): started 10 min before reperfusion, 40 min, Rep 30′
# [13] = AMP (40 min): started 10 min before reperfusion, 40 min, Rep 90′
# [14] = AMP (40 min): started 10 min before reperfusion, 40 min, Rep 180′
# [15] = AMP (70 min, late): 30 μg/kg iv bolus + 3 μg/kg/min, started 10 min after reperfusion, 70 min, Baseline
# [16] = AMP (70 min, late): started 10 min after reperfusion, 70 min, Ischemia (end of 30 min)
# [17] = AMP (70 min, late): started 10 min after reperfusion, 70 min, Rep 30′
# [18] = AMP (70 min, late): started 10 min after reperfusion, 70 min, Rep 90′
# [19] = AMP (70 min, late): started 10 min after reperfusion, 70 min, Rep 180′
# [20] = AMP (70 min, onset): 30 μg/kg iv bolus + 3 μg/kg/min, started at onset of reperfusion, 70 min, Baseline
# [21] = AMP (70 min, onset): started at onset of reperfusion, 70 min, Ischemia (end of 30 min)
# [22] = AMP (70 min, onset): started at onset of reperfusion, 70 min, Rep 30′
# [23] = AMP (70 min, onset): started at onset of reperfusion, 70 min, Rep 90′
# [24] = AMP (70 min, onset): started at onset of reperfusion, 70 min, Rep 180′
# A2a receptor subtype, sequence (P29274 whole entry, the tested form may be a part): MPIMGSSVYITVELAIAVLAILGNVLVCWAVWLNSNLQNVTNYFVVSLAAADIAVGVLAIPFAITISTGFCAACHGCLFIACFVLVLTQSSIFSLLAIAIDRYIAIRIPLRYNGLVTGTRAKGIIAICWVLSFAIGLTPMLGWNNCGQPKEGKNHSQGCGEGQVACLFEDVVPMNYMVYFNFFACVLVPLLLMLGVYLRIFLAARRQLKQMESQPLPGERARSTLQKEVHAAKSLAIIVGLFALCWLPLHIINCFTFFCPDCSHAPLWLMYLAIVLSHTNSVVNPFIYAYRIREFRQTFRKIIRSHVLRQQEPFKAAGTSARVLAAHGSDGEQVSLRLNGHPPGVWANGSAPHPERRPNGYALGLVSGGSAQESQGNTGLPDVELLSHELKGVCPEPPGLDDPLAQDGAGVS
smiles,measurement,setting,value
Nc1ncnc2c1ncn2[C@@H]1O[C@H](CO)[C@@H](O)[C@H]1O [Adenosine],% infarction of the risk zone,in situ rabbit hearts; [2],32.6 ± 5.8%
same,Infarct size,in situ rabbit hearts; [2],0.36 ± 0.09 cm^3
same,% infarction of the risk zone,in situ rabbit hearts; [3],34.4 ± 9.5%
same,Infarct size,in situ rabbit hearts; [3],0.36 ± 0.11 cm^3
same,% infarction of the risk zone,in situ rabbit hearts; [4],29.2 ± 8.0%
same,Infarct size,in situ rabbit hearts; [4],0.30 ± 0.08 cm^3
same,Protection against infarction,in situ rabbit hearts; 70 min starting 10 min before reperfusion,No protection was seen
same,Protection against infarction,"in situ rabbit hearts; 70 min starting 10 min before reperfusion, listed as adenosine",none of the doses was protective
same,Infarct size (% of risk zone),in situ rabbit hearts; Infusion rate 300 ug/kg/min,34.4 ± 9.5%
same,Infarct size (% of risk zone),in situ rabbit hearts; Infusion rate 400 ug/kg/min,29.2 ± 8.0%
same,Burst of free radicals at reperfusion,chick cardiomyocytes; 100 μM (a receptor saturating concentration),failed to block the burst of free radicals at reperfusion
"CCNC(=O)[C@H]1CC(n2cnc3c(N[C@H](CC)Cc4sccc4Cl)ccnc32)[C@H](O)[C@@H]1O (relative stereo) [AMP 579, [1S-[1α,2β,3β,4α(S*)]]-4-[7-[[3-chloro-2-thienyl)methyl]propyl]amino]-3H-imidazo[4,5-b]pyridin-3-yl]-N-ethyl-2,3-dihydroxycyclopentanecarboxamide]",Onset of contracture that accompanies reperfusion,rabbit heart,greatly attenuates the onset of contracture
same,"Infarct size, percentage of the risk zone","in situ rabbit hearts; 70 min, started 10 min after reperfusion",27.6±7.2%
same,"Infarct size, percentage of the risk zone","in situ rabbit hearts; 70 min, started at onset of reperfusion, p<0.05 vs. control",13.0±1.9%
same,"Infarct size, percentage of the risk zone","in situ rabbit hearts; started 10 min before reperfusion, 30 min infusion",30.1±1.4%
same,"Infarct size, percentage of the risk zone","in situ rabbit hearts; started 10 min before reperfusion, 40 min infusion",24.8±5.9%
same,Infarct size,"in situ rabbit hearts; AMP (30 min): 30 μg/kg iv bolus + 3 μg/kg/min, started 10 min before reperfusion, 30 min",0.27 ± 0.05 cm^3
same,Infarct size,"in situ rabbit hearts; AMP (40 min): 30 μg/kg iv bolus + 3 μg/kg/min, started 10 min before reperfusion, 40 min",0.27 ± 0.07 cm^3
same,Infarct size,"in situ rabbit hearts; AMP (70 min, late): 30 μg/kg iv bolus + 3 μg/kg/min, started 10 min after reperfusion, 70 min",0.28 ± 0.07 cm^3
same,Infarct size,"in situ rabbit hearts; AMP (70 min, onset): 30 μg/kg iv bolus + 3 μg/kg/min, started at onset of reperfusion, 70 min, * p<0.05 vs. control",0.14 ± 0.03* cm^3
same,HR,[1]; [5],271 ± 3 beats/min
same,MAP,[1]; [5],91.8 ± 2.8 mmHg
same,HR,[1]; [6],247 ± 5 beats/min
same,MAP,[1]; [6],73.7 ± 3.9 mmHg
same,HR,[1]; [7],241 ± 7 beats/min
same,MAP,[1]; [7],74.8 ± 5.1 mmHg
same,HR,[1]; [8],256 ± 11 beats/min
same,MAP,[1]; [8],77.7 ± 5.7 mmHg
same,HR,[1]; [9],265 ± 6 beats/min
same,MAP,[1]; [9],77.9 ± 5.2 mmHg
same,HR,[1]; [10],271 ± 11 beats/min
same,MAP,[1]; [10],99.3 ± 2.4 mmHg
same,HR,[1]; [11],268 ± 7 beats/min
same,MAP,[1]; [11],76.8 ± 6.6 mmHg
same,HR,[1]; [12],250 ± 14 beats/min
same,MAP,[1]; [12],70.4 ± 8.1 mmHg
same,HR,[1]; [13],268 ± 13 beats/min
same,MAP,[1]; [13],83.5 ± 5.0 mmHg
same,HR,[1]; [14],268 ± 10 beats/min
same,MAP,[1]; [14],81.8 ± 4.5 mmHg
same,HR,[1]; [15],285 ± 3 beats/min
same,MAP,[1]; [15],96.9 ± 2.9 mmHg
same,HR,[1]; [16],281 ± 1 beats/min
same,MAP,[1]; [16],84.6 ± 4.5 mmHg
same,HR,[1]; [17],243 ± 8 beats/min
same,MAP,[1]; [17],57.4 ± 5.6 mmHg
same,HR,[1]; [18],240 ± 6 beats/min
same,MAP,[1]; [18],69.0 ± 4.9 mmHg
same,HR,[1]; [19],259 ± 10 beats/min
same,MAP,[1]; [19],68.1 ± 3.6 mmHg
same,HR,[1]; [20],262 ± 6 beats/min
same,MAP,[1]; [20],98.6 ± 3.2 mmHg
same,HR,[1]; [21],270 ± 9 beats/min
same,MAP,[1]; [21],89.0 ± 3.2 mmHg
same,HR,[1]; [22],233 ± 9 beats/min
same,MAP,[1]; [22],55.6 ± 3.9 mmHg
same,HR,[1]; [23],235 ± 16 beats/min
same,MAP,[1]; [23],70.8 ± 4.5 mmHg
same,HR,[1]; [24],264 ± 10 beats/min
same,MAP,[1]; [24],79.6 ± 3.9 mmHg
same,Hypotensive effect,[1]; infusion commenced before the onset of reperfusion (AMP 30 min and AMP 40 min groups),additional mild hypotensive effect
same,pKi,A1 receptor subtype,8.30
same,Protection against infarction (dose required),rabbit hearts; 3 μg/kg/min,protective
same,"Infarct size, percentage of the risk zone","rabbit hearts; 70-min infusion starting 10 min prior to reperfusion, previous study (Xu et al.)",12.3±1.0%
same,pKi,A2a receptor subtype,7.25
same,Burst of free radicals at reperfusion,chick cardiomyocytes; 1 μM,virtually eliminated it
